Laboratory results reported in patent US9993516B2, “Treatment of left ventricular non-compaction and dilated cardiomyopathy by inhibiting melanocortin receptor four” (THE BRIGHAM AND WOMEN'S HOSPITAL, INC., priority 2013, dated 2018).

Columns and labels:
[1] = test system: healthy wildtype zebrafish embryos
Description: MC4 receptor antagonists and agonists were dissolved in 100% DMSO to a stock concentration of 1 mM. Working solutions were diluted in nuclease free water. The concentrations for MCL0020, HS014, SU9119 were 1 μM, for JKC363 2 μM, HS024 200 nM and for the MC4 receptor agonist THIQ 1 μM and 500 μM.
(§1) Working solutions of 10 nM, 100 nM or 1 μM were diluted in 20 ml E3 water and zebrafish embryos were incubated directly after birth. Cardiac function was assessed at 48 hpf as described below.
For analysis of cardiac function embryos were laterally positioned and allowed to acclimate at 24° C. Video microscopy was performed on an Axioplan (Zeiss) upright microscope with a FastCam-PCI high-Speed digital camera (Photron) on top. 1088 frames were digitally captured at identical frame rates (250 frames per second) and magnification (5×). Sequential images were analyzed for heart rate and cardiac output using IMAGEJ and Excel. Experiments were repeated at least 3 times on each occasion using 10 animals.

[2] = test system: PRDM16 morphant knockdown embryos and truncation mutant (p.K702X) transgenics; test: Cardiac function (cardiac output) by video microscopy in PRDM16 morphant and truncation mutant zebrafish embryos, rescue experiments; format: in vivo; conditions: for rescue of reduced cardiac output (contractile impairment): injected into yolk sac at one-cell stage, MCL0020, HS014, SU9119 1 μM, JKC363 2 μM, HS024 200 nM, THIQ 1 μM and 500 μM
Description: Morpholinos directed against the translation start codon were 5'-[…] NO: 7) for prdm16 (Gene Tools (Philomath, Oreg.)) and were injected at the one cell stage. Concentrations of 0.2 mM were used. For cardiac-specific overexpression experiments the human PRDM16 truncation mutation ([…]) and the human PRDM16 wildtype were cloned downstream of the cmlc2 promoter into the Tol2kit expression system using Gateway technology (Invitrogen). PRDM16 constructs (15 ng/μl) were co-injected with 10 ng/μl capped Tol2 transposase mRNA into one-cell-stage zebrafish embryos.

[3] = test system: PRDM16 mutant model as well as wildtype fish; test: Tail necrosis on norepinephrine incubation of zebrafish embryos; format: in vivo; conditions: high doses of norepinephrine
Description: as §1

[4] = test system: PRDM16 morphant and mutant hearts; test: Intercellular coupling / conduction velocity by optical mapping of isolated zebrafish embryo hearts; format: in vivo
Description: Intercellular coupling parameters in zebrafish embryo hearts were measured using previously reported techniques. Briefly, hearts were isolated from zebrafish embryos, stained with the transmembrane-potential-sensitive dye di-8-ANEPPS (Invitrogen) and placed into a perfusion chamber that was mounted onto the stage of an inverted microscope. Excitation light from a high-intensity Hg arc lamp was transmitted through a 525/50-nm bandpass filter and reflected onto the preparation via a 565-nm dichroic mirror. Fluorescence emission was filtered by a 685/80-nm bandpass filter and recorded at a rate of 2000 s^-1 by a high-speed CCD camera (CardioCCD-[…]). Single-pixel action potentials were extracted from the fluorescence data and conduction velocities were estimated using an established algorithm. Experiments were repeated at least 2 times with 5 animals. Immunofluorescence, Detection of Apotosis and Mitochondrial Assessment

[5] = test system: PRDM16 mutants; test: Apoptosis (TUNEL assay) in isolated hearts of PRDM16 mutant zebrafish; format: in vivo; conditions: hearts at 48 hpf
Description: For detection of apoptosis hearts from 48 hpf old zebrafish embryos were isolated and fixed in 4% PFA/PBS for 30 min and washed twice in PBS-T for 30 min. TUNEL assay was performed by using the in situ cell detection kit from Roche. Hearts were mounted with ProLong Antifade reagent with DAPI on a slide and confocal images were analyzed using IMAGEJ.

[6] = test system: PRDM16 morphant and truncation mutant hearts; test: Cardiomyocyte proliferation (PCNA staining) in isolated hearts of PRDM16 morphant/mutant zebrafish; format: in vivo; conditions: hearts at 48 hpf
Description: For proliferation detection hearts from 48 hpf old zebrafish embryos were isolated and fixed in Prefer fixative (Anatech). The fixed hearts were stained with the primary antibodies rabbit anti-PCNA 1:200 (Abcam) and mouse anti-MF20 1:100 (DSHB), and the secondary antibodies donkey or goat anti-rabbit or mouse Alexa 488 or 546 conjugated (Invitrogen) 1:1,000. Hearts were mounted with ProLong Antifade reagent with DAPI mounting medium on a slide. Confocal images were analyzed using IMAGEJ.

Compound | cardiac output in wildtype embryos ([1]; THIQ 1 μM and 500 μM) | heart rate ([1]; THIQ, FIGS. 8A and 8B, fish group not given) | rescue of reduced cardiac output (contractile impairment) [2] | necrosis of the tail [3] | rescue of contractile dysfunction ([2]; PRDM16 mutant model, norepinephrine doses of 10 nM up to 1 μM, incubation in E3 water, 48 hpf) | disrupted coupling of cells (reduction in impulse propagation velocities) [4] | increased apoptosis [5] | decreased cardiomyocyte proliferation (percentage of PCNA positive cells) [6]
O=C(N[C@H](Cc1ccc(Cl)cc1)C(=O)N1CCC(Cn2cncn2)(C2CCCCC2)CC1)[C@H]1Cc2ccccc2CN1 [THIQ] | decreases cardiac output | not altered | not able to rescue | – | – | – | – | –
NC[C@H](O)c1ccc(O)c(O)c1 [norepinephrine] | – | – | – | necrosis of the tail | able to rescue | – | – | –
HS024 | – | – | efficiently rescued | – | – | rescued | restored | prevented or reduced
